Experimental data: patent US5179206A, “Substituted 3-aminosydnone imines” (Cassella Aktiengellschaft, priority 1989, dated 1993)
Counter-ions that a name gives are not always drawn. Like-named read-outs stand apart in the source and are kept apart here.

Test system: pulmonary artery of the guinea pig (spiral strips)
Experiment: Relaxant effect on potassium-depolarized, CaCl2-contracted spiral strips of the pulmonary artery of the guinea pig (modified method of Godfraind and Kaba and of Schuman et al)
Settings: depolarized using 40 mmol/l of potassium, contraction induced by 0.5 mmol/l of CaCl2, average value of 4 to 6 vessel strips, read-out: IC50: concentration of the test substance which inhibits the contraction by 50%
Description: The pharmacological action of the compounds of the formula I was determined by a modified method of Godfraind and Kaba (Arch.Int. Pharmacodyn. Ther. 196, (Suppl.) 35 to 49, 1972) and of Schuman et al (Naunyn-Schmiedeberg's Arch. Pharmacol. 289, 409 to 418, 1975). In this connection, spiral strips of the pulmonary artery of the guinea pig are depolarized using 40 mmol/l of potassium after equilibration in calcium-free Tyrode solution. An addition of 0.5 mmol/l of CaCl2 then induces a contraction. The relaxant effect of the test substance is determined by cumulative addition in semilogarithmic graduated concentrations. The concentration of the test substance which inhibits the contraction by 50% (=IC50, mol/l) is determined from the concentration-effect curve (abscissa: -log mol/l of test substance, ordinate: % inhibition of the maximum contraction, average value of 4 to 6 vessel strips).

IC50 (Cavia porcellus) [nM] | IC50 [nM] | Compound
2300 | – | CC1CCCC(C)N1[n+]1[n-]oc(=N)c1Cc1ccccc1 (stereo not shown) [Example 6, 4-Benzyl-3-(2,6-dimethylpiperidino)sydnone imine hydrochloride]
– | > 300000 | CCOC(=O)[N-]c1cn(N2CCOCC2)n[o+]1 [Molsidomine, N-ethoxycarbonyl-3-morpholino-sydnone imine, reference compound]
2000 | – | CC1CCCC(C)N1[n+]1[n-]oc(=N)c1CCc1ccccc1 (stereo not shown) [Example 8, 3-(2,6-Dimethylpiperidino)-4-(2-phenylethyl)sydnone imine hydrochloride]
2400 | – | CCCCCCc1c(=N)o[n-][n+]1N1C(C)CCCC1C (stereo not shown) [Example 3, 3-(2,6-Dimethylpiperidino)-4-hexylsydnone imine hydrochloride]
